Patent US10329243B2, “Biphenyl derivative and uses thereof” (XI'AN LIBANG PHARMACEUTICAL CO., LTD, priority 2015, dated 2019)
Where two headings read alike, the source gives them in different places.

Experiments:
[1] = tested on: rats with permanent cerebral ischemia injury; assay type: in vivo, SD rats
Description: 336 healthy male SD rats weighing 250-300 g, provided by the Experimental Animal Center of the Fourth Military Medical University, were randomly divided into […]: the sham operation group, the permanent cerebral ischemia model group, and Examples 1-12 groups. The biphenyl derivatives used in each of the Examples 1-12 groups were the same as those in Example 13.
Rats were intraperitoneally injected with 10% chloral hydrate 350 mg/kg after anesthesia and opened up at the center of the neck in accordance with the Zea Longa modified method. The right common carotid artery was separated, and the right external carotid artery branches was ligated. A small opening was made at the distal end of the external carotid artery, and a previously prepared thread was inserted through the common carotid artery and the external carotid artery bifurcation into the internal carotid artery, till the anterior end of the middle cerebral artery, with an immersed depth of 18 to 19 mm. The thread was then secured, and the wound was sutured layer by layer. After the operation, the rats were placed in a clean incubator to wake up. […] The sham operation group, the permanent cerebral ischemia model group, and the Example groups were prepared strictly according to the requirements of the cerebral ischemic reperfusion model, while in the sham operation group the thread was put only into the external carotid artery. The animals were allowed to eat and drink freely after waking up. […] The sham operation group and the permanent cerebral ischemia model group were injected with the same amount of blank PEG400 aqueous solution at the same time point.
The neurological impairment was scored in each group 24 h after the embolism. The scoring was in accordance with the Longa 5-grade method: grade 0: no nerve injury symptom; grade 1: inability of stretching the contralateral forepaw; grade 2: circling to the opposite side; grade 3: tumbling to the opposite side; grade 4: no autonomous activity with loss of consciousness.

[2] = tested on: brain cell apoptosis; test: Apoptosis determination (TUNEL method), permanent cerebral ischemia model; assay type: in vivo, SD rats
Description: Rats were intraperitoneally injected with 10% chloral hydrate 350 mg/kg after anesthesia and opened up at the center of the neck in accordance with the Zea Longa modified method. The right common carotid artery was separated, and the right external carotid artery branches was ligated. A small opening was made at the distal end of the external carotid artery, and a previously prepared thread was inserted through the common carotid artery and the external carotid artery bifurcation into the internal carotid artery, till the anterior end of the middle cerebral artery, with an immersed depth of 18 to 19 mm. The thread was then secured, and the wound was sutured layer by layer. After the operation, the rats were placed in a clean incubator to wake up. […] The sham operation group, the permanent cerebral ischemia model group, and the Example groups were prepared strictly according to the requirements of the cerebral ischemic reperfusion model, while in the sham operation group the thread was put only into the external carotid artery. The animals were allowed to eat and drink freely after waking up. The sham operation group, the permanent cerebral ischemia model group, and the Example groups were administered intravenously the aqueous solution of the biphenyl derivatives in PEG400 at 40 mg/kg (40 mg/kg means that 40 mg of the test compound per kg of the body weight of rats) 30 min before insertion of thread and 12 h after embolism, respectively. The sham operation group and the permanent cerebral ischemia model group were injected with the same amount of blank PEG400 aqueous solution at the same time point.
24 hours after the embolism, 8 rats in each group were sacrificed by decapitation, the brain was removed, rinsed with PBS (pH 7.4) at −20°i for 20 min, evenly sliced (with a thickness of 2 mm), stained in a 2% TTC solution at 37°% in the dark for 30 min, fixed in 10% formalin for 24 h, and photographs were taken to analyze the infarct volume. A mixture of femoral arterial and venous blood was drawn from another 8 rats in each group under anesthesia, placed in a low temperature centrifuge at 4° C., centrifuged at 3500 r/min for 20 min, and the supernatant was stored in a refrigerator at −20° C. ready for SOD and MDA detection. After the blood was drawn, a perfusion needle was insert through the apex to the ascending aorta, and saline at 4° C. was rapid infused until the effluent became clear, followed by 4% paraformaldehyde phosphate buffer perfusion for fixation; the brain was removed by craniotomy, and brain tissues 2 mm in front of and behind the optic chiasma were taken and fixed, dehydrated, rendered transparent, impregnated in wax, and embedded. Brain continuous coronary tissue pathological sections were consecutively cut for later use. The remaining 8 rats in each group were sacrificed, brains were removed, the ischemic brain hemispheres were immediately taken on an ice tray, and 10% brain tissue homogenate was prepared for the detection of IL-1β and TNF-α.
The TUNEL method was used for determination. Brain tissue paraffin sections were dewaxed into water, washed with 3% H2O2 to eliminate endogenous peroxidase activity, and rinsed with distilled water for 2 min, repeated 3 times. A labelling solution was added for labelling at 37°t for 2 h, and a blocking solution was added for blocking at room temperature for 30 min. A biotinylated anti-digoxin antibody was added for a reaction at 37°a for 30 min, and SABC was added for a reaction at 37°a for 30 min. The sections were continuously rinsed with TBS for 5 min repeatedly for 4 times, stained with DAB, sufficiently washed, mild counterstained with Hematoxylin, gradient dehydrated with alcohol, made transparent with toluene, sealed and fixed. Five non-overlapping fields in semi-dark band were randomly selected from each section and inputted into the image analysis system. The number of apoptotic cells was counted, and the average was designated the number of apoptotic cells.

[3] = permanent cerebral ischemia model rats, 40 mg/kg intravenously 30 min before insertion of thread and 12 h after embolism, scored 24 h after the embolism, Longa grade 0-4
[4] = permanent cerebral ischemia model rats, 40 mg/kg intravenously, brain sections 24 h after the embolism, TUNEL, average of five fields

Q: Which “Average score of neurological impairment” value [1, 3] does the source give for “3,3′,5,5′-tetraisopropylbiphenyl-4,4′-bis(oxymethylene phosphate) [Example 3 group]” here?
A: 2.8

Q: What about the “Number of apoptotic cells” value ([2]; rat, in vivo, iv, 40 mg/kg) of the same molecule?
A: 29.72 ± 3.43

Q: How did the “Number of apoptotic cells” value ([2]; permanent cerebral ischemia model rats, edaravone 3 mg/kg) turn out when `CC1=NN(c2ccccc2)C(=O)C1` [Edaravone injection, edaravone, reference compound] was run?
A: 33.19 ± 3.81

Q: How did the “Average score of neurological impairment” value [1, 3] turn out when `CC(=O)Oc1c(C(C)C)cc(-c2cc(C(C)C)c(O)c(C(C)C)c2)cc1C(C)C` [Example 1 group, 4′-hydroxy-3,3′,5,5′-tetraisopropylbiphenyl-4-acetate] was run?
A: 2.4

Q: How did the “Average score of neurological impairment” value [1, 3] turn out when `CC(=O)Oc1c(C(C)C)cc(-c2cc(C(C)C)c(OC(C)=O)c(C(C)C)c2)cc1C(C)C` [Example 2 group, 3,3′,5,5′-tetraisopropylbiphenyl-4′-diacetate] was run?
A: 2.5

Q: And the “Number of apoptotic cells” value [2, 4]?
A: 23.27 ± 3.78

Q: With `CC(C)c1cc(-c2cc(C(C)C)c(OC(=O)CCC(=O)O)c(C(C)C)c2)cc(C(C)C)c1O` [Example 5 group, [4-(4′-hydroxy-3,3′,5,5′-tetraisopropylbiphenyl)oxy]-4-carbonyl butyric acid] as the molecule, how does the “Average score of neurological impairment” value [1, 3] read?
A: 2.4

Q: What about the “Number of apoptotic cells” value [2, 4] of the same molecule?
A: 23.48 ± 3.62

Q: What does the source list for `CCCc1cc(-c2cc(CCC)c(O)c(C(C)C)c2)cc(C(C)C)c1O` [Example 6 group, 4,4′-dihydroxy-3,3′-diisopropyl-5,5′-dipropylbiphenyl]?
A: Average score of neurological impairment [1, 3]: 2.2; Number of apoptotic cells [2, 4]: 21.24 ± 5.30

Q: What does the source list for `CCCc1cc(-c2cc(CCC)c(O)c(CCC)c2)cc(CCC)c1O` [Example 7 group, 4,4′-dihydroxy-3,3′,5,5′-tetrapropylbiphenyl]?
A: Average score of neurological impairment [1, 3]: 2.3; Number of apoptotic cells [2, 4]: 20.32 ± 4.19

Q: For `CC(C)c1cc(-c2cc(C(C)C)c(C(=O)O)c(C(C)C)c2)cc(C(C)C)c1O` [Example 8 group, 4′-hydroxy-3,3′,5,5′-tetraisopropylbiphenyl-4-carboxylic acid], which “Average score of neurological impairment” value [1, 3] is on record?
A: 2.7

Q: And the “Number of apoptotic cells” value [2, 4]?
A: 27.74 ± 4.20

Q: Which results are given for `CC(C)c1cc(-c2cc(C(C)C)c(Cl)c(C(C)C)c2)cc(C(C)C)c1O` [Example 9 group, 4-chloro-4′-hydroxy-3,3′,5,5′-tetraisopropylbiphenyl]?
A: Average score of neurological impairment ([1]; rat, in vivo, iv, 40 mg/kg): 2.8; Number of apoptotic cells ([2]; rat, in vivo, iv, 40 mg/kg): 31.44 ± 5.19

Q: For `CC(C)c1cc(-c2cc(C(C)C)c(OC=O)c(C(C)C)c2)cc(C(C)C)c1O` [Example 10 group], which “Average score of neurological impairment” value [1, 3] is on record?
A: 2.4

Q: What about the “Number of apoptotic cells” value [2, 4] of the same molecule?
A: 23.67 ± 5.13

Q: `CC(C)c1cc(-c2cc(C(C)C)c(OC(=O)C(N)C(C)C)c(C(C)C)c2)cc(C(C)C)c1O` (stereo not shown) [Example 11 group, 4′-hydroxy-3,3′,5,5′-tetraisopropylbiphenyl-2-amino-3-methylbutyrate] was tested. Which “Average score of neurological impairment” value [1, 3] did it give?
A: 2.3

Q: What about the “Number of apoptotic cells” value [2, 4] of the same molecule?
A: 26.31 ± 3.86

Q: What does the source list for `CC(=O)OC(C)Oc1c(C(C)C)cc(-c2cc(C(C)C)c(O)c(C(C)C)c2)cc1C(C)C` (stereo not shown) [Example 12 group, Ethyl 1-(4′-hydroxy-3,3′,5,5′-tetraisopropylbiphenyl-4-oxo)acetate]?
A: Average score of neurological impairment [1, 3]: 2.6; Number of apoptotic cells [2, 4]: 32.45 ± 4.21
